Results: article PMC12498136, “Synthesis and biological evaluation of novel carnosic acid derivatives with anticancer activity” (RSC Advances, 2025)
Read-outs that look alike come from different tables or passages of the source.

Assays:
HCT116 cells [1] = test: MTT cell viability assay in HCT116 cells; type: cell-based; conditions: for IC50: Homo sapiens, read-out: IC50 HCT116
Method: The MTT assay was used to assess the effect of the compounds on cell viability. […] Subsequently, the culture medium was switched with a new medium containing DMSO (control) or the compound at a specified concentration. […] The plates were then incubated for 1 h at 37 °C. After this time, the supernatant was aspirated, and the formazan crystals were dissolved in 100 μL of DMSO in each well. Relative cell viability was calculated by measuring absorbance at 570 nm using a Benchmark Plus Microplate Reader (Bio-Rad Laboratories, Hercules, CA, USA).

SW480 cells = test: MTT cell viability assay in SW480 cells; type: cell-based
Method: (§1) The MTT assay was used to assess the effect of the compounds on cell viability. For this purpose, A375 (1500 cells per well), BJ (10 000 cells per well), Caco-2 (4000 cells per well), HCT116 (3000 cells per well), Mia Paca-2 (2000 cells per well), SW480 (6000 cells per well), and SW620 (8000 cells per well) cells were seeded in 96-well plates and incubated for 24 h. Subsequently, the culture medium was switched with a new medium containing DMSO (control) or the compound at a specified concentration. Following a 72 h incubation period, the supernatant was aspirated, and 100 μL of a mixture (1 : 1) of filtered MTT solution (1 mg per mL PBS) and FBS-free medium was added. The plates were then incubated for 1 h at 37 °C. After this time, the supernatant was aspirated, and the formazan crystals were dissolved in 100 μL of DMSO in each well. Relative cell viability was calculated by measuring absorbance at 570 nm using a Benchmark Plus Microplate Reader (Bio-Rad Laboratories, Hercules, CA, USA). Results are presented as the mean ± standard deviation (SD) of IC50 values, determined by nonlinear regression analysis of dose–response curves (log(inhibitor) vs. response with variable slope (four parameters)) using GraphPad Prism 9 software (GraphPad Software, San Diego, CA, USA).

Mia Paca-2 cells [2] = test: MTT cell viability assay in Mia Paca-2 cells; type: cell-based; conditions: Homo sapiens, MIA PaCa-2; MTT assay, 72 h incubation, mean ± SD; read-out: IC50 Mia Paca-2
Method: as §1

SW620 cells [3] = test: MTT cell viability assay in SW620 cells; type: cell-based; conditions: Homo sapiens, SW-620; MTT assay, 72 h incubation, mean ± SD; read-out: IC50 SW620
Method: as §1

A375 cells [4] = test: MTT cell viability assay in A375 cells; type: cell-based; conditions: Homo sapiens, A-375; MTT assay, 72 h incubation, mean ± SD; read-out: IC50 A375
Method: as §1

Caco-2 cells = test: MTT cell viability assay in Caco-2 cells; type: cell-based; conditions: Homo sapiens, Caco-2; MTT assay, 72 h incubation, mean ± SD; read-out: IC50 Caco-2
Method: as §1

A375 cells [5] = system: A375 cells; set-up: method as in PMID 23229057; conditions: MTT assay, from the literature, ref [38]; cited from earlier work
Mia Paca-2 cells [6] = system: Mia Paca-2 cells; set-up: method as in PMID 18007390; conditions: MTT assay, from the literature, ref [37]; cited from earlier work
BJ cells = system: BJ cells; set-up: method as in doi:10.1039/C5RA19120C; conditions: MTT assay, previously determined by the research team, ref [39]; read-out: IC50 BJ (non-tumoral); cited from earlier work
HCT116 cells [7] = conditions: MTT assay, 72 h; previously determined by the research team, ref [26]; cited from earlier work
SW620 cells [8] = system: SW620 cells; set-up: method as in PMID 31909511; conditions: MTT assay, previously determined by the research team, ref [35]; cited from earlier work
[9] = HCT-116, MTT assay, 72 h incubation, mean ± SD
[10] = SW480 cells, ratio of IC50 values

Compound: COC(=O)[C@]12CCCC(C)(C)[C@@H]1CC(O)c1cc(C(C)C)c(OC(C)=O)c(OC(C)=O)c12 (stereo partly drawn) [Compound 9, Methyl(4aR,10aS)-5,6-bis(acetyloxy)-9-hydroxy-1,1-dimethyl-7-(propan-2-yl)-1,3,4,9,10,10a-hexahydrophenanthrene-4a(2H)-carboxylate]
- IC50 (HCT116 cells [1]; [9]): 37 ± 3 µM

Compound: COC(=O)N[C@]12CCCC(C)(C)[C@@H]1CC(=O)c1cc(C(C)C)c(OC(C)=O)c(OC(C)=O)c12 [Compound 18, (4bR,8aS)-4b-[(Methoxycarbonyl)amino]-8,8-dimethyl-10-oxo-2-(propan-2-yl)-4b,5,6,7,8,8a,9,10-octahydrophenanthrene-3,4-diyl diacetate]
- IC50 (HCT116 cells [1]; HCT-116, 72 h): > 50 µM

Compound: CCCCOC(=O)[C@]12CCCC(C)(C)[C@@H]1CC(=O)c1cc(C(C)C)c(OC(C)=O)c(OC(C)=O)c12 [Compound 8, Butyl(4aR,10aS)-5,6-bis(acetyloxy)-1,1-dimethyl-9-oxo-7-(propan-2-yl)-1,3,4,9,10,10a-hexahydrophenanthrene-4a(2H)-carboxylate]
- IC50 (SW480 cells; Homo sapiens, SW480, MTT assay, 72 h incubation, mean ± SD, read-out: IC50 SW480): 6.8 ± 0.6 µM
- fold more active than cisplatin (SW480 cells; [10]): 2.2 fold
- fold more potent than CA 1 (SW480 cells; [10]): 3.2 fold
- IC50 (Mia Paca-2 cells [2]): 12 ± 1 µM
- fold more active than cisplatin (HCT116 cells [1]; HCT116 cells, ratio of IC50 values): 1.4 fold
- IC50 (HCT116 cells [1]; [9]): 15.1 ± 0.7 µM
- IC50 (SW620 cells [3]): 11 ± 1 µM
- IC50 (A375 cells [4]): 8.1 ± 0.5 µM
- IC50 (Caco-2 cells): 12.7 ± 0.3 µM

Compound: CCOC(=O)[C@]12CCCC(C)(C)[C@@H]1CCc1cc(C(C)C)c(OC(C)=O)c(OC(C)=O)c12 [Compound 4, Ethyl(4aR,10aS)-5,6-bis(acetyloxy)-1,1-dimethyl-7-(propan-2-yl)-1,3,4,9,10,10a-hexahydrophenanthrene-4a(2H)-carboxylate]
- IC50 (HCT116 cells [1]; HCT-116, 72 h): 25 ± 2 µM

Compound: CC(=O)Oc1c(C(C)C)cc2c(c1OC(C)=O)[C@@]1(N=C=O)CCCC(C)(C)[C@@H]1CC2 [Compound 14, (4bR,8aS)-4b-Isocyanato-8,8-dimethyl-2-(propan-2-yl)-4b,5,6,7,8,8a,9,10-octahydrophenanthrene-3,4-diyl diacetate]
- IC50 (HCT116 cells [1]; HCT-116, 72 h): 28 ± 3 µM

Compound: N.N.[Cl][Pt][Cl] [Cisplatin]
- IC50 (A375 cells [5]): 3 ± 1 µM
- IC50 (Mia Paca-2 cells [6]): 5 ± 1 µM
- IC50 (BJ cells): 10 ± 2 µM
- IC50 (HCT116 cells [7]): 21 ± 1 µM
- IC50 (SW620 cells [8]): 1.4 ± 0.5 µM

Compound: CCOC(=O)[C@]12CCCC(C)(C)[C@@H]1CC(=O)c1cc(C(C)C)c(OC(C)=O)c(OC(C)=O)c12 [Compound 7, Ethyl(4aR,10aS)-5,6-bis(acetyloxy)-1,1-dimethyl-9-oxo-7-(propan-2-yl)-1,3,4,9,10,10a-hexahydrophenanthrene-4a(2H)-carboxylate]
- IC50 (HCT116 cells [1]; [9]): 31 ± 3 µM

Compound: CCOC(=O)N[C@]12CCCC(C)(C)[C@@H]1CC(=O)c1cc(C(C)C)c(OC(C)=O)c(OC(C)=O)c12 [Compound 19, (4bR,8aS)-4b-[(Ethoxycarbonyl)amino]-8,8-dimethyl-10-oxo-2-(propan-2-yl)-4b,5,6,7,8,8a,9,10-octahydrophenanthrene-3,4-diyl diacetate]
- IC50 (HCT116 cells [1]; HCT-116, 72 h): 48.2 ± 0.1 µM

Compound: CCCCOC(=O)[C@]12CCCC(C)(C)[C@@H]1CC(O)c1cc(C(C)C)c(OC(C)=O)c(OC(C)=O)c12 (stereo partly drawn) [Compound 11, Butyl(4aR,10aS)-5,6-bis(acetyloxy)-9-hydroxy-1,1-dimethyl-7-(propan-2-yl)-1,3,4,9,10,10a-hexahydrophenanthrene-4a(2H)-carboxylate]
- IC50 (HCT116 cells [1]; [9]): 27 ± 4 µM

Compound: CC(C)c1cc2c(c(O)c1O)[C@@]1(C(=O)O)CCCC(C)(C)[C@@H]1CC2 [CA 1, Carnosic acid]
- IC50 (Mia Paca-2 cells [2]): 21 ± 1 µM
- IC50 (HCT116 cells [1]; [9]): 42 ± 4 µM
- IC50 (SW620 cells [3]): 18 ± 2 µM
- IC50 (Caco-2 cells): 34 ± 2 µM

Compound: CCOC(=O)[C@]12CCCC(C)(C)[C@@H]1CC(O)c1cc(C(C)C)c(OC(C)=O)c(OC(C)=O)c12 (stereo partly drawn) [Compound 10, Ethyl(4aR,10aS)-5,6-bis(acetyloxy)-9-hydroxy-1,1-dimethyl-7-(propan-2-yl)-1,3,4,9,10,10a-hexahydrophenanthrene-4a(2H)-carboxylate]
- IC50 (HCT116 cells [1]; [9]): 34 ± 3 µM

Compound: CCOC(=O)N[C@]12CCCC(C)(C)[C@@H]1CCc1cc(C(C)C)c(OC(C)=O)c(OC(C)=O)c12 [Compound 16, (4bR,8aS)-4b-[(Ethoxycarbonyl)amino]-8,8-dimethyl-2-(propan-2-yl)-4b,5,6,7,8,8a,9,10-octahydrophenanthrene-3,4-diyl diacetate]
- IC50 (HCT116 cells [1]; HCT-116, 72 h): 37 ± 2 µM

Compound: COC(=O)N[C@]12CCCC(C)(C)[C@@H]1CCc1cc(C(C)C)c(OC(C)=O)c(OC(C)=O)c12 [Compound 15, (4bR,8aS)-4b-[(Methoxycarbonyl)amino]-8,8-dimethyl-2-(propan-2-yl)-4b,5,6,7,8,8a,9,10-octahydrophenanthrene-3,4-diyl diacetate]
- IC50 (HCT116 cells [1]; HCT-116, 72 h): 55 ± 5 µM

Compound: CC(=O)Oc1c(C(C)C)cc2c(c1OC(C)=O)[C@@]1(C(=O)O)CCCC(C)(C)[C@@H]1CC2 [Compound 2, (4aR,10aS)-5,6-Bis(acetyloxy)-1,1-dimethyl-7-(propan-2-yl)1,3,4,9,10,10a-hexahydrophenanthrene-4a(2H)-carboxylic acid]
- IC50 (HCT116 cells [1]; [9]): 44 ± 4 µM

Compound: COC(=O)[C@]12CCCC(C)(C)[C@@H]1CC(=O)c1cc(C(C)C)c(OC(C)=O)c(OC(C)=O)c12 [Compound 6, Methyl(4aR,10aS)-5,6-bis(acetyloxy)-1,1-dimethyl-9-oxo-7-(propan-2-yl)-1,3,4,9,10,10a-hexahydrophenanthrene-4a(2H)-carboxylate]
- IC50 (HCT116 cells [1]; [9]): 36 ± 1 µM

Compound: CCCCOC(=O)[C@]12CCCC(C)(C)[C@@H]1CCc1cc(C(C)C)c(OC(C)=O)c(OC(C)=O)c12 [Compound 5, Butyl(4aR,10aS)-5,6-bis(acetyloxy)-1,1-dimethyl-7-(propan-2-yl)-1,3,4,9,10,10a-hexahydrophenanthrene-4a(2H)-carboxylate]
- IC50 (HCT116 cells [1]; [9]): 26 ± 1 µM
